Laboratory results reported in patent publication US10918727B2, “Peptide with ability to penetrate cell membrane” (ICURE BNP CO., LTD., priority 2016, dated 2021).
Non-standard residues stand in square brackets, D forms with d. No end group written: not given here.

Assays:
[1] = tested on: type 1 diabetic model mice (STZ-induced male ICR mice); test: Blood glucose-lowering effect of intranasal TCTP-PTD/insulin mixture in type 1 diabetic model mice; type: in vivo, mouse; settings: insulin 2 IU/kg, insulin:peptide 1:2, monitored 240 minutes
Method: Streptozotocin (STZ) was injected intraperitoneally into male ICR mice (body weight: 33-34.5 g) four times (doses: 100, 50, 50 and 50 mg/kg) at 2-day intervals to induce type 1 diabetes. At 7 days after last administration of STZ, mice having a blood glucose level of 300-350 mg/dL were selected as experimental animals.

[2] = tested on: normal male white Wistar rats; test: Pharmacodynamic profile of nasal insulin formulations in normal white rats (blood glucose); type: in vivo, rat; settings: subcutaneous
Method: After design of the nasal insulin formulations, evaluation of the pharmacodynamic profile of each nasal insulin formulation was performed in normal white rats. Specifically, male white Wistar rats weighing 165-200 g were used as experimental animals. For accuracy of evaluation, the […] were fasted overnight, and then white rats having a blood glucose level of 90-120 mg/dL in the fasted state were used in the experiment. To calculate PA (pharmacological availability), the initial blood glucose level was taken as 100%. To administer the nasal insulation formulations, the mice were anesthetized by intraperitoneal administration of the anesthetic sodium pentobarbital (dose: 65 mg/kg).

[3] = tested on: type 1 diabetic white rats (alloxan-induced); test: Pharmacodynamic profile of nasal insulin formulations in type 1 diabetic (alloxan) rats; type: in vivo, rat; settings: type 1 diabetic rats
Method: Alloxan was injected intraperitoneally to experimental white rats to induce type 1 diabetes. One week after alloxan administration, white rats having a blood glucose level of 230-300 mg/dL were used as experimental animals.

[4] = Pharmacokinetic profile of nasal insulin formulations (plasma insulin); settings: rats
[5] = Plasma insulin concentration after intranasal administration of insulin/TCTP-PTD mixtures (ELISA); settings: rats, insulin 0.5 IU/kg, 50 μM insulin + 100 μM peptide, peptides compared with SEQ ID NO: 27
Excerpt: Male Wistar rats weighing 180-190 g were used as experimental animals and anesthetized in the same manner as described above.

[6] = Body weight-reducing effect of intranasal TCTP-PTD 13-[D-Leu-4]-OB3; type: in vivo, mouse; settings: for body weight after 10 days compared with PBS or OB3 / rate of increase in body weight for 10 days compared with PBS or OB3: ICR mice, intranasal 2 mg/kg once each day for 10 days
Excerpt: A peptide (SEQ ID NO: 124) comprising [D-Leu-4]-OB3 linked to L-PTD 13 or D-PTD 13 by a GG linker was designed. Furthermore, peptides (SEQ ID NO: 125, SEQ ID NO: 126 and SEQ ID NO: 127, respectively) comprising [D-Leu-4]-OB3 linked to each of D-TCTP-PTD 13M1, D-TCTP-PTD 13M2 or D-TCTP-PTD 13M3 by a GG linker were designed. The peptides were synthesized with a purity of 90% or higher by Peptron Inc.
4-week-old male ICR mice were used as experimental animals and divided into the following groups, each consisting of 7 animals: PBS, [D-Leu-4]-OB3, L-PTD 134D-Leu-41-OB3, and D-PTD 134D-Leu-41-OB3 groups. Each of [D-Leu-4]-OB3, L-PTD 134D-Leu-41-OB3 and D-PTD 13-[D-Leu-4]-OB3 was administered intranasally to each mouse at a dose of 2 mg/kg once each day for 10 days at a uniform time point, while a change in the body weight of each of the experimental animals was measured.

[7] = Appetite-inhibiting effect (food intake) of intranasal TCTP-PTD 13-[D-Leu-4]-OB3; type: in vivo, mouse; settings: ICR mice, intranasal 2 mg/kg; for cumulative food intake compared with PBS: measured every day for 10 days
Method: In order to examine whether or not the body weight-reducing effect confirmed in Example 7-2 has a connection with a decrease in food intake, PBS, [D-Leu-4]-OB3, L-PTD 13-[D-Leu-4]-OB3 or D-PTD 13-[D-Leu-4]-OB3 was administered intranasally at a dose of 2 mg/kg, and the food intake was measured everyday for 10 days.

[8] = tested on: type 2 diabetic model mice (db/db mice); test: Blood glucose-lowering effect of intranasal TCTP-PTD/Ex-4 mixture in type 2 diabetic model mice after i.p. glucose; type: in vivo, mouse; settings: Ex-4 10 μg/kg, 10 μM Ex-4 + 20 μM peptide, glucose 2.5 g/kg i.p., monitored 240 minutes
Method: Male db/db mice weighing 31-34 g were used as experimental animals. The mice were fasted overnight, and then the blood glucose level in the mice were measured using a blood glucose meter.
20 minutes after anesthesia, each of the prepared Ex-4/TCTP-PTD mixtures was administered intranasally to the mice (Ex-4 dose: 10 μg/kg), and a control group was administered intranasally with the same amount of Ex-4, and a negative control group was administered intranasally with the same amount of PBS. After 15 minutes, glucose (2.5 g/kg) was injected intraperitoneally to the mice, and the blood glucose level in the mice was monitored for 240 minutes.

[9] = tested on: cervical cancer cell line HeLa; test: Cell membrane penetration of FITC-labeled TCTP-PTD peptides in HeLa cells (fluorescence reader); type: cell-based; settings: 10 μM FITC-labeled peptide, 15 minutes
Method: The cervical cancer cell line HeLa was prepared. To detect TCTP-PTD accumulated in cells after passage through the cell membrane, the N-terminus of the synthesized peptide was labeled with FITC (fluorescein isothicyanate). Then, the cervical cancer cell line Hela was treated with 10 μM of the FITC-labeled TCTP-PTD of SEQ ID NO: 18, SEQ ID NO: 22, SEQ ID NO: 24 or SEQ ID NO: 27 for 15 minutes. After completion of the incubation, the cells were washed three times with PBS to remove FITC-TCTP-PTD remaining on the cell membrane of the HeLa cells. 500 μl of PBS was added, and then the fluorescence intensity of the FITC was measured with a fluorescence reader at 495 nm and 517 nm.

[10] = tested on: hair follicle and dermis of the skin (male BALB/c mice); test: Hair follicle penetration of FITC-labeled TCTP-PTD after transdermal administration (fluorescence microscopy); type: in vivo, mouse; settings: 100 μl of 100 μM FITC-labeled peptide on 1 cm^2, 2 hours
Method: (§1) Male BALB/c mice (7-8-week-old) were prepared, and the abdominal region of the mice was shaved. Next, the mice were anesthetized by intraperitoneal injection of urethane (1.2-1.5 g/kg), and then 100 μl of each TCTP-PTD peptide solution was applied to the abdominal region of each mouse so as to be administered transdermally. Each of the peptide solutions was applied to an area of 1 cm^2.
2 hours after transdermal administration, the skin tissue was collected, fixed with 10% formalin for about 24 hours, and then treated with 30% sucrose solution for 4 hours. The pretreated skin tissue was immersed in OCT-compound, and then treated with liquid nitrogen to prepare a frozen block. The skin tissue was sectioned to a thickness of 20 μm by use of a cryotome and attached to a slide. The slide having the skin tissue attached thereto was washed five times with PBS, and then the nucleus was stained with DAPI (blue fluorescence).
The amino terminus of L-PTD 13 or D-PTD 13 was labeled with FITC (green fluorescence), and then each PTD peptide was dissolved in PBS (phosphate buffered saline, pH 7.4) to a final concentration of 100 μM.
as §1, with “of the FITC-labeled L-PTD 13 or D-PTD 13” for “TCTP-PTD peptide”

[11] = tested on: human bronchial epithelial cell line BEAS-2B; test: Cell membrane penetration of FITC-labeled L-/D-form TCTP-PTD 13 by flow cytometry; type: cell-based; settings: BEAS-2B cells, 2.5 μM FITC-labeled peptide, 30 minutes
Method: The human bronchial epithelial cell line BEAS-2B was prepared, and the cell membrane penetration ability of the TCTP-PTD peptide according to the amino acid type was analyzed by flow cytometry. Specifically, BEAS-2B cells were seeded on a 6-well plate at a density of 8×10^5 cells/well, and then cultured in cell culture medium (BEGM) for 24 hours. After 24 hours of cell culture, each well was washed twice with PBS, and then each well was treated with FITC-labeled L-form TCTP-PTD 13 (hereinafter referred to as L-PTD 13; SEQ ID NO: 27) or FITC-labeled D-form TCTP-PTD 13 (hereinafter referred to as D-PTD 13; SEQ ID NO: 27) diluted in cell culture medium such that the concentration of each TCTP-PTD would be 2.5 μM. 30 minutes after the cells were treated with the two kinds of TCTP-PTD 13, the cells were isolated from each well by use of 0.25% trypsin, and then washed 6 times with cold PBS to remove TCTP-PTD from the cell surface.

[12] = tested on: nasal mucosal membrane (female BALB/c mice); test: Penetration of OVA into nasal mucosal epithelial cells after intranasal OVA/TCTP-PTD 13 mixture (immunofluorescence); type: in vivo, mouse; settings: intranasal 10 μl, OVA 10 μM (4.5 μg), OVA:PTD 1:30, 15 minutes
Method: First, OVA and L-PTD 13 or D-PTD 13 were dissolved in PBS (phosphate buffered saline, pH 7.4) such that the concentrations of OVA and TCTP-PTD would be 10 μM and 300 μM, respectively, thereby preparing mixtures. Herein, OVA and TCTP-PTD were mixed at a molar ratio of 1:30.
Female BALB/c mice (6-8-week-old) were anesthetized by intraperitoneal injection of 50 mg/kg of zoletil and 10 mg/kg of xylazine.
10 μl of OVA, the OVA/D-PTD 13 mixture or the OVA/L-PTD 13 mixture was administered intranasally to each of the anesthetized mice. A control group was administered with 4.5 μg of OVA alone.
15 minutes after intranasal administration, the nasal tissue was collected. The collected nasal tissue was fixed with 10% formalin for about 24 hours, and then decalcified using 4 M formic acid at 4° C. for 30 hours. After decalcification, the nasal tissue was embedded in paraffin according to a conventional method, sectioned to a thickness of 5 μm, and attached to a slide. […] After incubation with the primary antibody, the slide was washed with PBS, and then incubated with a 1:100 dilution of secondary antibody (green fluorescence; Alexa 488-conjugated secondary antibodies, Invitrogen) at room temperature for 1 hour. The slide was washed with PBS, and then the nucleus was stained with DAPI (blue fluorescence), followed by observation with a fluorescence microscope.

Substance: insulin
- change in blood glucose level [1]: no significant change in the blood glucose level
- AAC 0-180 min (area above the blood glucose level-time curve) ([2]; insulin 0.5 IU/kg): 2560
- PA % (pharmacological availability) ([2]; insulin 0.5 IU/kg (reference)): 100%
- AAC 0-240 min (area above the blood glucose level-time curve) ([3]; nasal, insulin 2 IU/kg): 2156.65 ± 1070.68
- AAC 0-240 min (area above the blood glucose level-time curve) ([3]; subcutaneous, insulin 1 IU/kg): 26897.33 ± 772.31
- PA % ([3]; subcutaneous, insulin 1 IU/kg (reference)): 100%
- BA % (relative bioavailability vs s.c. insulin) ([4]; nasal, insulin 5 IU/kg, listed as Free insulin): 3.34 ± 0.38%
- BA % ([4]; subcutaneous, insulin 0.25 IU/kg (reference)): 100%
- blood insulin concentration / insulin uptake [5]: little or no change in the blood insulin concentration

Substance: L-PTD 13-[D-Leu-4]-OB3: peptide (SEQ ID NO: 124) comprising [D-Leu-4]-OB3 linked to L-PTD 13 by a GG linker (MIIFRALISHKKGGSCS[dL]PQT)
- body weight after 10 days compared with PBS or OB3 [6]: decreased
- rate of increase in body weight for 10 days compared with PBS or OB3 [6]: lower
- total food intake after 10 days of administration [7]: decreased
- cumulative food intake compared with PBS [7]: decreased continuously

Substance: SEQ ID NO: 27: TCTP-PTD peptide of Korean Patent No. 10-0859972, basis of the variants (MIIFRALISHKK; PTD #27)
- blood glucose level after i.p. glucose / blood glucose-lowering effect [8]: increase the blood glucose-lowering effect of Ex-4
- fluorescence of FITC-labeled peptide in cells (cell membrane penetration) [9]: high level of fluorescence

Substance: SEQ ID NO: 12: variant TCTP-PTD peptide (MIIFRLAAYHKK; PTD #12)
- penetration to hair follicle and dermis of the skin [10]: reached the hair follicle and dermis of the skin

Substance: D-PTD 13: D-form TCTP-PTD 13; SEQ ID NO: 27 ([dM][dI][dI][dF][dR][dA][dL][dI][dS][dH][dK][dK])
- body weight-reducing and appetite-inhibiting effects, D-form vs L-form ([6]; peptide linked to [D-Leu-4]-OB3, intranasal 2 mg/kg, 10 days, results of Examples 7-2 and 7-3 together): better effects than L-PTD 13
- ability to penetrate the cell membrane (flow cytometry) [11]: excellent ability to penetrate the cell membrane
- penetration to hair follicle and dermis of the skin [10]: reached the hair follicle and dermis of the skin

Substance: L-PTD 13: L-form TCTP-PTD 13; SEQ ID NO: 27 (MIIFRALISHKK; PTD #27)
- ability to penetrate the cell membrane (flow cytometry) [11]: excellent ability to penetrate the cell membrane
- penetration to hair follicle and dermis of the skin [10]: reached the hair follicle and dermis of the skin

Substance: D-PTD 13-[D-Leu-4]-OB3: peptide (SEQ ID NO: 124) comprising [D-Leu-4]-OB3 linked to D-PTD 13 by a GG linker ([dM][dI][dI][dF][dR][dA][dL][dI][dS][dH][dK][dK]GGSCS[dL]PQT)
- body weight after 10 days compared with PBS or OB3 [6]: decreased
- rate of increase in body weight for 10 days compared with PBS or OB3 [6]: lower
- total food intake after 10 days of administration [7]: decreased
- cumulative food intake compared with PBS [7]: decreased continuously

Substance: SEQ ID NO: 1: variant TCTP-PTD peptide (LIIFRALISHKK; PTD #1)
- penetration to hair follicle and dermis of the skin [10]: reached the hair follicle and dermis of the skin

Substance: SEQ ID NO: 17: variant TCTP-PTD peptide (MIIFRIAAYPKK; PTD #17)
- penetration to hair follicle and dermis of the skin [10]: reached the hair follicle and dermis of the skin

Substance: ovalbumin [OVA (ovalbumin), 45 kDa, model antigen for vaccination]
- OVA fluorescence inside the nasal mucosal membrane [12]: not substantially observed inside the nasal mucosal membrane
